“And” between values parts separate entries of the source, which are not always exact repeats. Equal values may be shown once. Read-outs that look alike come from different tables or passages of the source.
Assays:
[1] = test system: Mycobacterium abscessus ATCC 19977; experiment: REMA MIC90 against M. abscessus ATCC 19977; assay type: cell-based; settings: Mycobacteroides abscessus, ATCC19977
Protocol: Briefly, serial 2-fold dilutions of drug are prepared in 96-well microtiter plates (Fluoronunc, Thermo Fisher, Waltham, MA, USA) in 100 μL of Middlebrook 7H9 medium (Difco), supplemented with 10% OADC without addition of Tween 80. Then, M. abscessus log-phase cultures were diluted (OD600=0.02) and added in the 96-well microtiter plate. Growth controls containing no compound and sterile controls without inoculum are also included. […] After 1 day of incubation at 37° C., 10 μL of resazurin (0.025% w/v) is added to each well, and bacterial viability is assessed after a further 24 h of incubation using a Fluoroskan™ Microplate Fluorometer (Thermo Fisher Scientific, Waltham, MA, USA; excitation=544 nm, emission=590 nm). […] Results are expressed as the average of at least three independent replicates and presented on the following Table 1.

[2] = test system: M. avium subsp. avium Chester ATCC15769; experiment: REMA MIC90, broad spectrum of microorganisms; assay type: cell-based; settings: Mycobacterium avium, M. avium subsp. avium Chester ATCC15769, Wild-type, read-out: MIC to Compound 2
[3] = test system: M. massiliense 2005-0524; experiment: REMA MIC90, broad spectrum of microorganisms; assay type: cell-based; settings: Mycobacteroides abscessus, 20050524, M. massiliense 2005-0524, Wild-type, read-out: MIC to Compound 2
[4] = test system: M. tuberculosis H37Rv; experiment: REMA MIC90, broad spectrum of microorganisms; assay type: cell-based; settings: Mycobacterium tuberculosis, Wild-type, read-out: MIC to Compound 2
[5] = assay type: physicochemical; settings: at a temperature of 20±3° C., from accelerated aging at 55±2° C.
Protocol: The aim of the study is to investigate the physical and chemical properties of a substances at elevated temperature and to establish an experimental expiration date for the substances (saline form vs base form).
• 5-(ethoxycarbonyl)pyridine-2-thiolate 1-oxide (base form) • sodium 5-(ethoxycarbonyl)pyridine-2-thiolate 1-oxide (compound 2—salt form)
• Storage temperature: (55±2° C.)
Double layer polyethylene bag. The package is placed in a bag made of laminated aluminum foil. Each package is wrapped in wrapping paper. […]

[6] = test system: Candida albicans H8; experiment: Antifungal agar well diffusion assay; settings: 20 μL water solution in 4 mm well
Protocol: (§1) The well diffusion test was performed using Casitone agar. The inoculum used was prepared using the Candida or Aspergillus strains from a 24-hour culture on Sabouraud dextrose agar, a suspension was made in a sterile saline solution (0.85%). The turbidity of the suspension was adjusted with a spectrophotometer at 530 nm to obtain a final concentration to match that of a 0.5 McFarland standard (0.5-2.5×10^3). 20 mL of Bacto-casitone were melted, cooled to 55° C. and then inoculated with 1 mL of the organism suspension. The inoculated agar was poured into the assay plate (9 cm in diameter) and allowed to cool down on a leveled surface.

[7] = Subacute toxicity, 14 days per oral administration in mice; assay type: in vivo
Protocol: Acute and subacute toxicity of compound 2 was experimentally studied for intragastric administration in white mice. […] The compound was solubilized in saline to be administrated to animals.
Evaluation of subacute toxicity of compound 2 observation time after 14 days per oral administration.
Experimental animals: 14 C57BL/6 male white mice, 7 weeks old, weight 20-22 g.
The following experimental procedure was used: • administration route of the compound: per os; • dosage 50 mg/kg once a day for 14 days; • volume introduced into 0.3 ml/20 g (15 ml/kg); • data recorded: behavior, weight changes, rectal temperature, mortality.

[8] = Pharmacokinetic study in mice; assay type: in vivo, Balb/C male mice; settings: 100 mg/kg intragastric, saline solution
Protocol: The pharmacokinetics of the compound 2 has been studied white Balb/C male mice. 27 animals with average body weight of 20 g were selected for the study. The animals were kept on standard vivarium ration with dry pelleted feed before the experiment. All the test animals had free access to water but were deprived of food for 1 hour before administration of the compound. This regimen was continued for another hour after the administration.
Compound in a dose of 100 mg/kg of body weight was administered as 0.5 mL of saline solution by intragastric intubation.
The animals were euthanized by decapitation for blood and brain sampling. Blood and brain samples (3 animals per time point) were taken at 15, 30, 60, 120, 240, 360 1440 min after administration for pharmacokinetic evaluation. Blood was collected in heparinized tubes and centrifuged at 3500 RPM. Plasma was separated from formed elements and immediately frozen at −20° C. in freezer. This storage continued before transferring of plasma for analysis. Serum from 6 untreated animals was used as control and for equipment calibration with compound. Mice brain was immediately frozen at −120° C.

[9] = test system: M. bovis BCG Pasteur; experiment: microbe, parasite or virus in culture; assay type: cell-based; settings: Mycobacterium tuberculosis variant bovis BCG, read-out: MIC to Compound 2
[10] = test system: Staphylococcus aureus ATCC 25923; experiment: REMA MIC90, broad spectrum of microorganisms; assay type: cell-based; settings: ATCC25923, read-out: MIC to Compound 2
[11] = test system: Sporobolomyces salmonicolor; experiment: Antifungal agar well diffusion assay; settings: 20 μL water solution in 4 mm well
Protocol: as §1

[12] = mice, per os, 50 mg/kg once a day for 14 days

CCOC(=O)c1ccc([S-])[n+]([O-])c1.[Na+] [Compound 2, Sodium 5-(ethoxycarbonyl)pyridine-2-thiolate 1-oxide]
MIC ([1]; MIC90, REMA, Table 1, read-out: MIC in M. abscessus ATCC 19977): 125 µg/mL | MIC ([1]; MIC90, M. abscessus ATCC 19977, Wild-type, Table 2, read-out: MIC to Compound 2): 250 µg/mL | MIC [2]: 500 µg/mL | MIC [3]: 500 µg/mL | MIC [4]: 25 µg/mL | Experimental shelf life [5]: about 2 years | Inhibition Zone of Test Microorganism [6]: 53 mm | Weight of mice, Experimental group, 28 Jan. 2021, M ± m ([7]; group mean, after 14 days of 50 mg/kg per os daily): 21.13 ± 0.308 gramm | Weight of mice, Experimental group, 13 Jan. 2021, M ± m ([7]; group mean, start of 50 mg/kg per os daily treatment): 20.71 ± 0.4 gramm | Weight of individual mice, Experimental group, 28 Jan. 2021 ([7]; individual mice, after 14 days of 50 mg/kg per os daily, 50 mg/kg): 21.1 gramm and 19.5 gramm and 20.9 gramm and 21.7 gramm and 21.5 gramm (2×) and 22.4 gramm and 20.5 gramm | Weight of individual mice, Experimental group, 13 Jan. 2021 ([7]; individual mice, start of 50 mg/kg per os daily treatment, 50 mg/kg): 20.1 gramm and 22.1 gramm and 19.2 gramm and 19.7 gramm and 20.9 gramm and 20.5 gramm and 22.8 gramm and 20.4 gramm | Subacute toxicity: general state and behavior [7, 12]: did not cause changes in the general state and behavior of the mice | Subacute toxicity: mass of mice, experimental vs control group [7, 12]: No significant differences | Subacute toxicity: animal death ([7]; mouse, in vivo, 50 mg/kg): there were no cases of animal death | Bioavailability [8]: high bioavailability | MIC [9]: 62.5 µg/mL | MIC [10]: 8000 µg/mL | Inhibition Zone of Test Microorganism [11]: 46 mm

From patent US20260191845A1, “PYRIDINE-2-THIOL 1-OXIDE DERIVATIVES AND THEIR USE FOR TREATMENT OF MAMMALIAN INFECTIONS CAUSED BY MYCOBACTERIUM OR FUNGI” (priority 2022, published 2026)
